This data set is described as follows: 26-week clinical trial in adult patients with T2D: gastrointestinal adverse events incl. nausea. It is filed as in vivo, human. The note with it: on-treatment. The procedure: A 26-week, randomized, double-blind clinical trial was carried out with adult patients with T2D, HbA1c 7.0-10.0% (53-86 mmol/mol), and body mass index 24.0-40.0 kg/m^2 who were treated with diet and exercise±metformin. […] The primary endpoint was change in HbA1c from baseline to week 26. Key exclusion criteria were a history of chronic or idiopathic acute pancreatitis and moderate-to-severe renal impairment (estimated glomerular filtration rate <60 mL/min/1.73 m^2).
Trial drug administration: Following a 2-week screening period, patients received trial medication for 26 weeks, followed by a 7-week follow-up period. […] The trial was double blinded within (but not between) each dose level of semaglutide, liraglutide and placebo, as treatment was volume matched.

Where [1] appears, read: Sema 0.05 mg once daily s.c., N 64.
Setting [2] is: Sema 0.1 mg once daily s.c., N 63.
[3] abbreviates: Sema 0.2 mg once daily s.c., N 65.
The mark [4] stands for this setting: Sema 0.3 mg once daily s.c., N 63.

Take “N^6.26-{18-[N-(17-carboxyheptadecanoyl)-L-γ-glutamyl]-10-oxo-3,6,12,15-tetraoxa-9,18-diazaoctadecanoyl}-[8-(2-amino-2-propanoic acid),34-L-arginine]human glucagon-like peptide 1(7-37) [Sema]”: the “Gastrointestinal adverse events, % (percentage of patients experiencing at least one event)” value by setting is: (Sema 0.05 mg once daily s.c.) 32.8%; (Sema 0.1 mg once daily s.c.) 44.4%; (Sema 0.2 mg once daily s.c.) 46.2%; (Sema 0.3 mg once daily s.c.) 54.0%. In addition, the “Gastrointestinal adverse events, E (number of events)” value was 61 (Sema 0.05 mg once daily s.c.), 90 (Sema 0.1 mg once daily s.c.), 106 (Sema 0.2 mg once daily s.c.) and 101 (Sema 0.3 mg once daily s.c.). The “Nausea, % (percentage of patients experiencing at least one event)” value is, setting by setting: (Sema 0.05 mg once daily s.c.) 17.2%; (Sema 0.1 mg once daily s.c.) 19.0%; (Sema 0.2 mg once daily s.c.) 21.5%; (Sema 0.3 mg once daily s.c.) 25.4%. Besides, the “Nausea, E (number of events)” value reads like this: (Sema 0.05 mg once daily s.c.) 16; (Sema 0.1 mg once daily s.c.) 20; (Sema 0.2 mg once daily s.c.) 22; (Sema 0.3 mg once daily s.c.) 22. The “Gastrointestinal adverse events, Ne (number of patients experiencing at least one event)” value by setting is: under setting [1], 21; under setting [2], 28; under setting [3], 30; under setting [4], 34. The “Nausea, Ne (number of patients experiencing at least one event)” value (from here on “Nausea, Ne”) under setting [1] is listed as 11; the “Nausea, Ne” value under setting [2] came to 12; the “Nausea, Ne” value under setting [3] was found to be 14; the “Nausea, Ne” value under setting [4] was 16.

For the origin of these results see patent US12551536B2, “Semaglutide in medical therapy” (Novo Nordisk A/S, priority 2017, dated 2026).
